According to PubChem BioAssay (NCI):
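Growth conditions: 96-well plates. Treatment: test compound, 48 hours, 5 concentrations. Analysis: linear interpolation between bracketing concentrations; unreached endpoints set to highest concentration. TGI: total growth inhibition.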

Experiments:
Experiment in all cases: NCI tumour cell line growth inhibition, 48 h
DLD-1 colon = tested on: DLD-1 colon
LXFL 529 NSCLC = tested on: LXFL 529 NSCLC
M19-MEL melanoma = tested on: M19-MEL melanoma
DMS 114 small cell lung = tested on: DMS 114 small cell lung
HOP-18 NSCLC = tested on: HOP-18 NSCLC
P388 leukemia = tested on: P388 leukemia
P388/ADR leukemia = tested on: P388/ADR leukemia
SN12K1 renal = tested on: SN12K1 renal
SNB-78 CNS = tested on: SNB-78 CNS

SMILES | TGI (DLD-1 colon) | TGI (LXFL 529 NSCLC) | TGI (M19-MEL melanoma) | TGI (DMS 114 small cell lung) | TGI (HOP-18 NSCLC) | TGI (P388 leukemia) | TGI (P388/ADR leukemia) | TGI (SN12K1 renal) | TGI (SNB-78 CNS)
CC(=O)Nc1ccc(C(=O)NN2C(=O)C(Cl)C2c2cccc([N+](=O)[O-])c2)cc1 (stereo unspecified) | > 100 µM | > 100 µM | > 100 µM |  |  |  |  |  | 
COc1cc(C2c3cc4c(cc3[C@@H](Nc3ccc(Oc5ccccc5)cc3)C3COC(=O)[C@H]23)OCO4)cc(OC)c1O (stereo partly specified) | > 100 µM |  | > 100 µM | > 22.7 µM | > 100 µM | 1.88 µM | 3.49 µM | > 100 µM | > 100 µM
